Assay results: patent US8765808B2, “Treatment or prevention of cancer and precancerous disorders” (CHS Pharma, Inc., priority 2005, dated 2014)
Entries after “also recorded” stand apart in the source; their conditions may differ.

Tests used:
[1] = system: normal human epidermal keratinocytes; assay: Cell viability after sulindac pretreatment and oxidative stress, normal keratinocytes; format: cell-based
Method: Experiments using similar methods were performed with primary human neonatal foreskin epidermal keratinocytes. These cells were of low-passage and purified using previously accepted protocols (provided by J. Li, University of Miami, Fl.). Cells were grown in 50% Keratinocyte-SFM media [Gibco-Invitrogen (Catalog #17005-042) supplemented with human recombinant Epidermal Growth Factor 1-53 (EGF 1-53) and Bovine Pituitary Extract (BPE)] with 50% EpiLife medium [Cascade Biologics (Catalog #Epi-500-Ca)] supplemented with purified bovine serum albumin, purified bovine transferrin, hydrocortisone, recombinant human insulin-like growth factor type-1 (rhIGF-1), prostaglandin E2 (PGE2), and recombinant human epidermal growth factor (rhEGF).
Normal human epidermal keratinocyte cells were incubated for 24 hr in the presence or absence of 500 μM sulindac. The medium was removed and the cells washed once with fresh medium followed by addition of medium containing the indicated concentration of (a) TBHP or (b) arsenic trioxide. After a 2 hr incubation with TBHP or a 24-hour incubation with arsenic trioxide at 37° C., the cells were assayed for viability as described.

[2] = system: lung carcinoma cell line designated A549; assay: MTS cell viability after pretreatment and oxidative stress, lung cancer cells
Method: Cell viability was determined by the [sequence] 96®-Aqueous One Cell Proliferation Assay (Promega) according to the manufacturer's instructions. The assay utilizes a novel tetrazolium compound (3-(4,5-dimethylthiazol-2-yl)-5-(3-carboxymethoxyphenyl)-2-(4-sulfophenyl)-2H-tetrazolium; MTS) and an electron-coupling reagent (phenazine ethosulfate; PES). Metabolically active cells convert the MTS to a water-soluble formazan by the action of cellular dehydrogenases. The amount of formazan produced is measured by absorbance at 490 nm using a colorimetric microtiter plate reader (BIORAD; Model 2550). Absorbance is directly proportional to the number of viable cells.
Experiments using similar methods were performed with a lung carcinoma cell line designated A549. […] Cells were grown in Ham's F12K medium supplemented with final concentrations of 2 mM L-glutamine, 1.6 g/L sodium bicarbonate and 10% fetal bovine serum. Cultures were maintained between 6×10^3-6×10^4 cells/cm^2 in standard tissue culture flasks. The protocol for pretreatment of cells with 500 μM sulindac followed by a two hour exposure to various concentrations of TBHP was the same as that described for the RKO colon cancer cells.
Following a 24 hr pretreatment with 500 μM sulindac, the cells were washed once to remove the excess sulindac before exposure to TBHP for 2 hr.

[3] = system: Normal HEK skin cells (human neonatal epidermal keratinocytes); assay: Intracellular ROS by indicator dye fluorescence, normal HEK skin cells
Method: Experimental conditions: Normal HEK skin cells plated onto 6-well plates at cell density of 60-70% confluence. Sulindac (0.5 mM)×24 hours (cell density remained about the same) followed by TBHP×2 hours followed by ROS indicator dye (5 μM)×1 hour (Table 1).
Human neonatal epidermal keratinocytes were plated into 6-well plates at a cell density of 60-70% confluence. The cultures were pretreated with sulindac (500 uM) for 34 hours followed by the addition of different concentrations of TBHP for 2 hours. During this period of time, the cell density in the 6-well plates remained the same (there was no increase in cell proliferation). This was followed by the addition of the ROS indicator dye.

[4] = system: Primary neonatal rat cardiac myocytes; assay: Killing by peroxide after sulindac, normal cardiac cells; format: cell-based; conditions: sulindac followed by peroxide (hydrogen peroxide and TBHP)
Excerpt: (§1) Primary neonatal rat cardiac myocytes and ARPE-19, a human retinal pigment epithelial cell line that is not fully transformed, were used in similar experiments with sulindac followed by peroxide.

[5] = system: MRC-5 normal human lung cell line; assay: MTS cell viability after sulindac pretreatment and TBHP, normal lung cells; format: cell-based; conditions: 500 μM sulindac 24 hr, then TBHP 2 hr (FIG. 12)
Method: (§2) The cells were maintained in minimum essential medium (Eagle) supplemented with 2 mM L-glutamine, Earle's BSS containing 1.5 g/L sodium bicarbonate, 0.1 mM non-essential amino acids, 1.0 mM sodium pyruvate and 10% fetal bovine serum.

[6] = Time course of sulindac pre-incubation before addition of the oxidant; format: cell-based
Method: Sulindac was pre-incubated for various times prior to the addition of the oxidant. […] There was no difference in the results with longer time courses such as 48-72 hours. After the pre-incubation with sulindac, the cells were washed and the oxidant was added with or without sulindac.

[7] = system: Lung cancer cells; assay: Intracellular ROS levels, lung cancer cells; format: cell-based; conditions: combination of sulindac and TBHP vs either treatment alone
[8] = system: precancerous growths and/or BCC's; assay: Topical sulindac gel followed by hydrogen peroxide solution in patients; conditions: applied alone to the skin condition
[9] = system: ARPE-19, a human retinal pigment epithelial cell line; assay: Killing by peroxide after sulindac, retinal cells; format: cell-based; conditions: sulindac followed by peroxide (hydrogen peroxide and TBHP)
Excerpt: as §1

[10] = system: SCC-25 squamous cell skin cancer cell line; assay: MTS cell viability after pretreatment and oxidative stress, SCC skin cancer cells; format: cell-based, human; conditions: 500 μM sulindac 24 hr pretreatment, then TBHP 2 hr (FIG. 1)
Method: as §2, with “SCC-25 is a human squamous cell carcinoma cell line developed by J G Rheinwald [Rheinwald, 1981]. […] The” for “The”
The experimental approach was to pretreat SCC cells with sulindac for 24 hr prior to exposure to TBHP for 2 hr. Sulindac (Sigma; S-8139) was freshly prepared as a 1M stock solution in 1M Tris.Cl, pH 8.0. SCC cells were suspended in culture medium containing 10% fetal bovine serum at a cell density of 6×10^5 cells/ml. Cell suspensions containing 500 μM sulindac or no sulindac (Control) were plated in 96 well microtiter plates with a total of 6×10^4 cells per well. The plates were incubated for 24 hr at 37° C. in a 5% CO2 incubator. The culture medium was then removed and the cells washed once with fresh culture medium without serum. After removal of the wash solution, fresh culture medium without serum that contained the indicated final concentration of TBHP was added to the cells for 2 hrs. Serum was omitted from the medium during the two-hour exposure to TBHP since TBHP may be rapidly depleted in the presence of serum.

[11] = system: SCC skin cancer cells; assay: Intracellular ROS by indicator dye fluorescence, SCC skin cancer cells
Method: SCC skin cancer cells were plated onto 6-well plates at a cell density of 50-60% confluence. The cultures were pretreated with sulindac (500 uM) for 24 hours followed by the addition of TBHP (100 uM) for two hours. During this period of time, the cell density in the 6-well plates increased to 80-90% confluent.

[12] = system: normal cells; assay: Constant non-toxic TBHP with escalating sulindac (FIG. 16), normal cells; format: cell-based; conditions: escalating sulindac 500 μM-1500 μM
[13] = system: WM-266-4 Melanoma skin cell line; assay: MTS cell viability after pretreatment and oxidative stress, melanoma cells; format: cell-based, human; conditions: 500 μM sulindac 24 hr pretreatment, then TBHP 2 hr (FIG. 8)
[14] = system: RKO colon cancer cell line; assay: MTS cell viability after pretreatment and oxidative stress, RKO colon cancer cells; format: cell-based, human; conditions: 500 μM sulindac 24 hr pretreatment, then TBHP 2 hr (FIG. 4)
Method: as §2, with “RKO is a human colon carcinoma cell line developed by Michael Brattain [Brattain, 1984]. […] The” for “The”
Experiments were performed with the RKO colon cancer cells that were pretreated with 500 μM sulindac using TBHP.

[15] = system: Normal lung cells; assay: Intracellular ROS levels, normal lung cells; format: cell-based; conditions: combination of sulindac and TBHP
[16] = system: CCD-18Co normal human colon cell line; assay: MTS cell viability after sulindac pretreatment and TBHP, normal colon cells; format: cell-based; conditions: 500 μM sulindac 24 hr, then TBHP 2 hr (FIG. 11)
Method: as §2

[17] = system: SCC-25 squamous cell skin cancer cell line; assay: MTS cell viability after pretreatment and oxidative stress, SCC skin cancer cells; format: cell-based, human; conditions: sulindac alone, concentrations below 1 mM, MTS assay
[18] = system: cancer cells; assay: Constant non-toxic TBHP with escalating sulindac (FIG. 16), cancer cells; format: cell-based; conditions: escalating sulindac 500 μM-1500 μM

## CC1=C(CC(=O)O)c2cc(F)ccc2/C1=C\c1ccc([S+](C)[O-])cc1 (racemic) [sulindac, Sulindac]
[1]; 500 μM sulindac 24 hr, then TBHP 2 hr (FIG. 10A)
  viability of normal human epidermal keratinocytes, TBHP: no significant effect
[1]; 500 μM sulindac 24 hr, then arsenic trioxide 24 hr (FIG. 10B)
  viability of normal human epidermal keratinocytes, arsenic trioxide: no significant effect
[1]; in combination with sulindac, effect lost above 400 μM TBHP
  TBHP concentrations with protective effect (enhanced resistance to oxidative stress): 50 to 400 µM
[2]; 500 μM sulindac 24 hr pretreatment, then TBHP 2 hr (FIG. 6)
  cell viability of lung cancer cells after exposure to TBHP: marked decrease in cell viability
[2]; 500 μM sulindac pretreatment (FIG. 7)
  sensitivity of lung cancer cells to killing by H2O2: differentially sensitive to killing
[2]; 1.5-2.0 mM TBHP, 2 hr, 500 μM sulindac pretreatment
  viability of cells pretreated with sulindac: at background levels
[2]; FIG. 15, 500 μM sulindac, 250 μM sulindac sulfone
  killing effect in all cancer cell studies: most potent killing effect
[2]; sulindac-treated vs untreated cells
  H2O2 range in which difference in viability is highly significant (P<0.001): 2.5 to 5.0 mM
[3]; Table 1, Sul alone, 0.5 mM 24 hours
  % Cells with ROS Uptake by Fluorescence: 2%
[3]; Table 4, Sul 500 uM alone
  % Cells containing ROS: 2%
[3]; sulindac combined with TBHP vs sulindac or TBHP alone
  level of ROS uptake in normal HEK cells when combined with TBHP: no significant effect
[4]
  killing of normal cardiac cells by peroxide: no enhanced killing
[5]
  effect on oxidative stress by TBHP, normal lung cells: provided protection from oxidative stress
[6]
  minimum pre-incubation time with sulindac to see an effect: ≥ 6 h
  pre-incubation time with sulindac giving optimum effects: 18 to 24 h
[7]
  intracellular ROS levels, lung cancer cells: significantly higher levels of ROS
[8]
  effect on the precancerous or cancerous growth when applied alone: no effect
[9]
  killing of retinal cells by peroxide: no enhanced killing
[10]
  killing of SCC carcinoma cells by TBHP: enhanced the killing
[11]; Table 2, Sul 0.5 mM 24 hours and/or TBHP 100 μM 2 hours
  % Cells with ROS Uptake by Fluorescence: 3%
[11]; Table 3, Sul 500 μM 24 hours and/or TBHP 100 μM 2 hours
  % Cells containing ROS: 3%
[11]; compared to untreated controls
  number of spindle cells in the culture: tends to increase the number of spindle cells
[11]; sulindac 0.5 mM 24 hours then TBHP 100 μM 2 hours
  ROS uptake in SCC skin cancer cells, sulindac in combination with TBHP: geometrically enhances the levels of ROS uptake
[11]; sulindac 500 uM or TBHP 100 uM alone
  ROS levels in SCC skin cancer cells, agent alone: enhances the levels of ROS uptake; also recorded: enhanced the ROS levels
[12]
  effect on normal cells: protective effect
[13]
  killing of Melanoma cells by TBHP: enhanced the killing
[14]
  killing of RKO carcinoma cells by TBHP: enhanced the killing
[15]
  intracellular ROS levels, normal lung cells: lower levels of ROS
[16]
  effect on oxidative stress by TBHP, normal colon cells: provided protection from oxidative stress
[17]
  toxicity of sulindac: effect on cell viability: no detectable effect on cell viability
[18]
  effect on cancer cells: enhanced killing
